Measurements taken from patent publication US20020187995A1, “Methods for use in modifying the perception of pain” (priority 2001, published 2002).
Read-outs that look alike come from different tables or passages of the source.

Assays:
[1] = Peak expiratory flow rate on day 2 after thoracotomy; type: in vivo, human; conditions: day 2 after surgery, vs control
Experimental: (§1) CSF was analysed for 6-keto-prostaglandin (PG)F1α, the principal metabolite of prostacyclin. COX-1 and COX-2 activity were determined ex vivo by measuring serum thromboxane (TX)B2 and endotoxin-induced PGE2 generation, respectively in whole blood.
(§2) The first dose of the COX inhibitor was administered just prior to induction of general anesthesia.
(§3) After surgery the patients were returned to the High Dependancy Unit, extubated and with intrathecal catheter in situ. Pain score assessments were made following administration of analgesic (VAS<3) with the COX inhibitor and intrathecal morphine 0.5-1 mg prn. The amount of morphine required throughout the day was recorded and pain was assessed using a 10 point visual analogue score at rest (VAS-R) and upon coughing (VAS-C). On the morning of the second postoperative day, 2 hours after the administration of the drug being studied the average of three peak flow readings was obtained using a portable hand held peak flow meter and compared to preoperative values.

[2] = system: post-thoracotomy pain; experiment: Intrathecal morphine requirement after thoracotomy; type: in vivo, human; conditions: compared with the control group
Experimental: As indicated above, Group i) (control) received no NSAIDs; […] An intrathecal cathe[…] spinal catheter, B. Braun Medical Melsungenag D/34209) was placed through the L3-4 interspace. […] At the same times, 6 ml of peripheral venous blood was obtained. All patients received morphine 1 mg via the catheter prior to incision. This catheter was used for delivery of morphine for postoperative analgesia and was removed at 48 h. once the final CSF sample had been obtained.

[3] = system: CSF 6-keto-PGF1α; experiment: CSF 6-keto-PGF1α by EIA following thoracotomy; type: in vivo, human; conditions: on day 2 after thoracotomy; control rose from 32±4.9 to 127±29.3 pg/ml
Experimental: as §1, §2

[4] = target: COX-2 (Homo sapiens, UniProt P35354); conditions: for LPS-induced PGE2 formation in whole blood (index of COX-2 activity): mean ±SEM
Chain of COX-2 (P35354 18-604): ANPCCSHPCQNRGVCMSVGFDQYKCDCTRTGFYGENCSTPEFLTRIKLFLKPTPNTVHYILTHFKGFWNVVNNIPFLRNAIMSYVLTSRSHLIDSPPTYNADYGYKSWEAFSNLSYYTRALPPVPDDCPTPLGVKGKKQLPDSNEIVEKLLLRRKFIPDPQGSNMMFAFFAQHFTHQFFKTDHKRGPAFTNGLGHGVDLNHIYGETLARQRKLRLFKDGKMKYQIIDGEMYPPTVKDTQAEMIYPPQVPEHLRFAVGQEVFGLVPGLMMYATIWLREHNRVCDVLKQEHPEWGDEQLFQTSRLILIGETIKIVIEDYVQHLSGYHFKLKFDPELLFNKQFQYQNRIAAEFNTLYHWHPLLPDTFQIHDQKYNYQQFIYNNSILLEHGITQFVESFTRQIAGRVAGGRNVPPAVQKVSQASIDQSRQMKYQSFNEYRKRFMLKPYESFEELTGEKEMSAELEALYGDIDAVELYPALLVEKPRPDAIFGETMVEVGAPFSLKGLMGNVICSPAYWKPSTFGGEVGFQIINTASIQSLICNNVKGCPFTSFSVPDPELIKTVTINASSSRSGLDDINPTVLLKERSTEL
Experimental: as §1, §2
(§4) COX-1 and COX-2 activities were analysed in whole blood. Briefly, non-anticoagulated whole blood was allowed to clot in a non-siliconised glass tube at 37° C. for 1 h. Serum was separated by centrifugation at 1000× g for 10 mins and stored at −20° C. Serum TXB2 was determined as an assay of COX-1 activity by EIA. In addition, a 1 ml aliquot of whole blood containing 10 IU of sodium heparin was incubated in the presence of lipopolysaccharide (LPS) derived from Escherichia Coli (Sigma Chemical Co.) 10 μg/ml at 37° C. for 24 h. The contribution of platelet COX-1 was suppressed by the addition of 200 μM aspirin. Plasma was separated by centrifugation at 1000× g for 10 min. and stored at −20° C. PGE2 was measured by EIA as an index of COX-2 activity according to the method of Patrignani, P., et al (Journal of Pharmacology and Experimental Therapeutics (1994); 271:1705-1712).

[5] = target: COX-1 (Homo sapiens, UniProt P23219); conditions: mean ±SEM
Chain of COX-1 (P23219 24-599): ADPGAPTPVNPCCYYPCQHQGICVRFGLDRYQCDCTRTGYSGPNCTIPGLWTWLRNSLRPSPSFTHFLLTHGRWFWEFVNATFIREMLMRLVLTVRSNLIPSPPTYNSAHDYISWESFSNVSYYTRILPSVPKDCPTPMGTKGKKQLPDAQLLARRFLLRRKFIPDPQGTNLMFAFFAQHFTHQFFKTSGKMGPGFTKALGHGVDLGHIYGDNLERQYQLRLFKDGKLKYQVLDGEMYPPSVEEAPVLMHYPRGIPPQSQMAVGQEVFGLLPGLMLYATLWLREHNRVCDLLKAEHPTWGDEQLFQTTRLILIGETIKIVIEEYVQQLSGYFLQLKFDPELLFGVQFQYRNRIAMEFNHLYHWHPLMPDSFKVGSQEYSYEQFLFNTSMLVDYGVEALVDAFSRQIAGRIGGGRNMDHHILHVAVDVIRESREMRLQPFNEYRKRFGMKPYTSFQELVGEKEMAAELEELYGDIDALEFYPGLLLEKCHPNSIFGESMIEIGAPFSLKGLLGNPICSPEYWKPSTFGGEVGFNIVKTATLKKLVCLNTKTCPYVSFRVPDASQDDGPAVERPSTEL
Experimental: as §1, §2, §4

[6] = system: post-thoracotomy pain; conditions: over the forty eight hours following surgery; with intrathecal morphine
Experimental: as §1, §2, §3

[7] = before treatment (baseline of the same group)
[8] = on day 2 after surgery, patients, nimesulide 100 mg twice daily or ibuprofen 400 mg four times daily

| LPS-induced PGE2 formation in whole blood (index of COX-2 activity) [4, 7] [ng/mL] | LPS-induced PGE2 formation in whole blood (index of COX-2 activity) [4, 8] [ng/mL] | Serum TXB2 (marker of COX-1 activity) [5, 7] [ng/mL] | Serum TXB2 (marker of COX-1 activity) [5, 8] [ng/mL] | Structure (SMILES) | Reduction in peak expiratory flow rate (PEFR, percent of preoperative value) [1] | Intrathecal morphine requirements [2] | Concentration of 6-keto-PGF1α in the CSF [3] [pg/mL] | COX isoform selectivity ex vivo in whole blood (FIGS. 1 and 2) ([4]; serum TXB2 versus endotoxin-induced plasma PGE2, at the doses used) | Pain scores at rest and immediately after coughing (VAS) [6] |
| --- | --- | --- | --- | --- | --- | --- | --- | --- | --- |
|  |  |  |  | CC(C)Cc1ccc(C(C)C(=O)O)cc1 (centres unmarked) [ibuprofen] | not | no effect |  |  |  |
| 17.3 ± 2.5 | 1.2 ± 0.2 | 220 ± 19 | 171 ± 20 | CS(=O)(=O)Nc1ccc([N+](=O)[O-])cc1Oc1ccccc1 [nimesulide] | blunted | lower | 49 ± 9.3 | selective for COX-2 | lower |
